Measurements reported in ChEMBL document CHEMBL1128013, “The synthesis and biological activity of tetrahydroquinoline angiotensin II antagonists containing a substituted biphenyltetrazole group” (Bioorg Med Chem Lett, 1994).

Tests used:
[1] = target: T1, Type-1 angiotensin II receptor (Cavia porcellus, UniProt Q9WV26); experiment: Compound was tested for in vitro inhibition of specific binding of [I-125]AII to Angiotensin II receptor, type 1 in guinea pig adrenal membrane preparation; format: cell membranes
T1 sequence (Q9WV26 whole entry): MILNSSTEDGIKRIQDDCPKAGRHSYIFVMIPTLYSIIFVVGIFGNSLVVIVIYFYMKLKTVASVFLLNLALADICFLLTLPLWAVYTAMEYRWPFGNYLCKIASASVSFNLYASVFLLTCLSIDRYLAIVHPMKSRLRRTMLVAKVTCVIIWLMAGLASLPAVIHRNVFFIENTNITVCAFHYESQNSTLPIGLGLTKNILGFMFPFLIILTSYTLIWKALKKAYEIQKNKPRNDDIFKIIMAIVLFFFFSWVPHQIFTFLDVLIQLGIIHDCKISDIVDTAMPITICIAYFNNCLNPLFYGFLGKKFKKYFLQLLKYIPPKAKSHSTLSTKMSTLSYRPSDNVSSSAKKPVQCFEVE

[2] = target: T1, Type-1 angiotensin II receptor; experiment: Compound was tested for in vitro inhibition of specific binding of [I-125]AII to AT1 receptor in guinea pig adrenal membrane preparation; format: cell membranes
Rattus norvegicus = experiment: Tested in vivo for inhibition of pressor response induced by infusion of AII in conscious normotensive rats, when given intravenously; format: functional, organism-based

| SMILES | IC50 [1] | IC50 [2] | EC50 (Rattus norvegicus) |
| --- | --- | --- | --- |
| CCc1cc(OCc2ccc(-c3ccc(C)cc3-c3nn[nH]n3)cc2)c2c(n1)CCCC2 | 54 nM | – | – |
| CCc1cc(OCc2ccc(-c3ccc(OC)cc3-c3nnn[nH]3)cc2)c2c(n1)CCCC2 | 140 nM | – | – |
| CCc1cc(OCc2ccc(-c3ccccc3-c3nn[nH]n3)cc2F)c2c(n1)CCCC2 | 9 nM | – | 0.22 mg/kg |
| CCc1cc(OCc2ccc(-c3ccc(Cl)cc3-c3nnn[nH]3)cc2)c2c(n1)CCCC2 | 93 nM | – | – |
| CCc1cc(OCc2ccc(-c3c(C)cccc3-c3nn[nH]n3)cc2)c2c(n1)CCCC2 | 29 nM | – | 0.48 mg/kg |
| CCc1cc(OCc2ccc(-c3cc(OC)ccc3-c3nn[nH]n3)cc2)c2c(n1)CCCC2 | 67 nM | – | – |
| CCCCc1nc(Cl)c(CO)n1Cc1ccc(-c2ccccc2-c2nnn[nH]2)cc1 [LOSARTAN] | – | – | 0.65 mg/kg |
| CCc1cc(OCc2ccc(-c3ccccc3-c3nn[nH]n3)cc2)c2c(n1)CCCC2 | 5 nM | – | 0.39 mg/kg |

Now from value to compound:

| IC50 [1] | IC50 [2] | EC50 (Rattus norvegicus) | SMILES |
| --- | --- | --- | --- |
| – | 27 nM | 0.24 mg/kg | CCc1cc(OCc2ccc(-c3ccccc3-c3nn[nH]n3)c(C(=O)O)c2)c2c(n1)CCCC2 |
| – | 7 nM | 0.52 mg/kg | CCc1cc(OCc2ccc(-c3ccccc3-c3nn[nH]n3)c(Cl)c2)c2c(n1)CCCC2 |
| – | 8 nM | 0.39 mg/kg | CCc1cc(OCc2ccc(-c3ccccc3-c3nn[nH]n3)c(OC)c2)c2c(n1)CCCC2 |
| – | 20 nM | 0.11 mg/kg | CCc1cc(OCc2ccc(-c3ccccc3-c3nn[nH]n3)c(C(=O)OC)c2)c2c(n1)CCCC2 |
| – | 6 nM | 0.1 mg/kg | CCc1cc(OCc2ccc(-c3ccccc3-c3nn[nH]n3)c(C(C)=O)c2)c2c(n1)CCCC2 |
